Data reported in US5998362A, “Conjugates useful in the treatment of prostate cancer” (priority 1997, dated 1999).
Where a SMILES comes first, the peptide text is derived from it. [ ]: non-standard residue; d: D form. The star is where a group is joined. Doxorubicin(3'-N) = COc1cccc2c1C(=O)c1c(O)c3c(c(O)c1C2=O)C[C@@](O)(C(=O)CO)C[C@@H]3O[C@H]1C[C@H](N*)[C@H](O)[C@H](C)O1; X2 = COCCOCCOCCOCCOCCOCCOCCOCCOCCOCCOCCOCCOCCOCCOCCOCCOCC(=O)*; X5 = COCCOCCOCCOCCOCCOCCOCCOCCOCCOCCOCCOCCOCCOCCOCCOCC(=O)*; X6 = COCCOCCOCCOCCOCCOCCOCCOCCOCCOCCOCCOCCOCCOCCOCC(=O)*; Decanoyl(3,6,9-trioxa) = COCCOCCOCC(=O)*; Glyceroyl(2R) = O=C([C@H](O)CO)*; X1 = COCCOCCOCCOCCOCCOCCOCC(=O)*; hArg = N=C(N)NCCCC[C@H](N)C(=O)O; 3Pal = N[C@@H](Cc1cccnc1)C(=O)O; X4 = O=C([C@H](O)[C@@H](O)CO)*; Chg = N[C@H](C(=O)O)C1CCCCC1; Nle = CCCC[C@H](N)C(=O)O; Glycolyl = O=C(CO)*

Assays:
DuPRO cells = assay: In vitro cytotoxicity of peptidyl derivatives of doxorubicin, Alamar Blue assay, DuPRO; type: cell-based; conditions: 3 days incubation, read-out: DuPRO cell kill EC 50 (μM), value in parentheses
Description: The cytotoxicities of the cleaveable oligopeptide-doxorubicin conjugates, prepared as described in Examples 3-6, against a line of cells which is known to be killed by unmodified doxorubicin was assessed with an Alamar Blue assay. Specifically, cell cultures of LNCap prostate tumor cells or DuPRO cells in 96 well plates was diluted with medium containing various concentrations of a given conjugate (final plate well volume of 200 μl). The cells were incubated for 3 days at 37° C., 20 μl of Alamar Blue is added to the assay well. The cells were further incubated and the assay plates were read on a EL-310 ELISA reader at the dual wavelengths of 570 and 600 nm at 4 and 7 hours after addition of Alamar Blue. Relative percentage viability at the various concentration of conjugate tested was then calculated versus control (no conjugate) cultures. If no salt is indicated, the free conjugate was tested.

free PSA [1] = molecular target: T1, free PSA (Homo sapiens, UniProt P07288); assay: Recognition of oligopeptide-doxorubicin conjugates by free PSA (time to 50% cleavage, HPLC); type: biochemical; set-up: required for 50% cleavage of the noted oligopeptides with enzymatically active free PSA; conditions: for Substrate cleavage by York PSA at 4 HOUR: Table 3, DOX conjugates
T1 sequence (P07288 25-261): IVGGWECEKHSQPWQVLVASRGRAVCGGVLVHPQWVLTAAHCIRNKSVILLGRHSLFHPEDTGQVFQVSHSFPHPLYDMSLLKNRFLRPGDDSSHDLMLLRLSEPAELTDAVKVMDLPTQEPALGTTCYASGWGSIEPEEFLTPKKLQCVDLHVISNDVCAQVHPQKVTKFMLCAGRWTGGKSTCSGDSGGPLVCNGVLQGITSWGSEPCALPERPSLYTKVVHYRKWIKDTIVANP
Description: If no salt is indicated for the conjugate, the free conjugate was tested.

free PSA [2] = molecular target: T1, free PSA; assay: Recognition of oligopeptides by free PSA (time to 50% cleavage, HPLC)
Description: The oligopeptides prepared as described in Example 1 were individually dissolved in PSA digestion buffer (12 mM tris(hydroxymethyl)-aminomethane pH8.0, 25 mM NaCl, 0.5 mM CaCl2) and the solution added to PSA at a molar ration of 100 to 1. The reaction is quenched after various reaction times by the addition of trifluoroacetic acid (TFA) to a final 1% (volume/volume). The quenched reaction was analyzed by HPLC on a reversed-phase C18 column using an aqueous 0.1% TFA/acetonitrile gradient. […] Oligopeptides containing free amine moieties (ie. comprising hArg, Orn, Lys and or 3PAL) were tested as TFA salts. All other oligopeptides were tested as neutral compounds.

[3] = Table 2, oligopeptides, PSA digestion buffer 12 mM Tris pH8.0, 25 mM NaCl, 0.5 mM CaCl2, substrate:PSA 100 to 1

Compound: COc1cccc2c1C(=O)c1c(O)c3c(c(O)c1C2=O)C[C@@](O)(C(=O)CO)C[C@@H]3O[C@H]1C[C@H](NC(=O)[C@H](CC(C)C)NC(=O)[C@H](CO)NC(=O)[C@H](CO)NC(=O)[C@H](CO)NC(=O)[C@H](CCC(N)=O)NC(=O)[C@H](Cc2ccc(O)cc2)NC(=O)[C@H](CO)NC(=O)CO)[C@H](O)[C@H](C)O1 [2-hydroxyacetyl-SYQ-SSSL-DOX(3'), 2-hydroxyacetyl-SerTyrGln-SerSerSerLeu-DOX (3')] (Glycolyl-SYQSSSL-{Doxorubicin(3'-N)})
- EC50 (DuPRO cells): 50 µM

Compound: COc1cccc2c1C(=O)c1c(O)c3c(c(O)c1C2=O)C[C@@](O)(C(=O)CO)C[C@@H]3O[C@H]1C[C@H](NC(=O)[C@H](CC(C)C)NC(=O)[C@H](CO)NC(=O)[C@H](CCC(N)=O)NC(=O)[C@@H](NC(=O)[C@H](CO)NC(=O)[C@H](C)NC(=O)[C@H](CCCCNC(=N)N)NC(=O)CO)C2CCCCC2)[C@H](O)[C@H](C)O1 [2-hydroxyacetyl-hRASChgQ-SL-DOX(3'), 2-hydroxyacetyl-hArgAlaSerChgGln-SerLeu-DOX (3')] (Glycolyl-[hArg]AS[Chg]QSL-{Doxorubicin(3'-N)})
- EC50 (DuPRO cells): > 100 µM

Compound: COc1cccc2c1C(=O)c1c(O)c3c(c(O)c1C2=O)C[C@@](O)(C(=O)CO)C[C@@H]3O[C@H]1C[C@H](NC(=O)[C@H](CC(C)C)NC(=O)[C@H](CO)NC(=O)[C@H](CCC(N)=O)NC(=O)[C@H](Cc2ccc(O)cc2)NC(=O)[C@H](CO)NC(=O)[C@H](CO)NC(=O)[C@H](CCCCNC(=N)N)NC(=O)CO)[C@H](O)[C@H](C)O1 [2-hydroxyacetyl-hRSSYQ-SL-DOX(3'), 2-hydroxyacetyl-hArgSerSerTyrGln-SerLeu-DOX (3')] (Glycolyl-[hArg]SSYQSL-{Doxorubicin(3'-N)})
- EC50 (DuPRO cells): > 100 µM

Compound: CCCC[C@H](NC(=O)[C@H](CO)NC(=O)[C@H](CCC(N)=O)NC(=O)[C@H](Cc1ccc(O)cc1)NC(=O)[C@H](CO)NC(=O)[C@H](CO)NC(=O)[C@H](CCCCNC(=N)N)NC(=O)CO)C(=O)N[C@H]1C[C@H](O[C@H]2C[C@](O)(C(=O)CO)Cc3c(O)c4c(c(O)c32)C(=O)c2c(OC)cccc2C4=O)O[C@@H](C)[C@H]1O [2-hydroxyacetyl-hRSSYQ-SNle-DOX(3'), 2-hydroxyacetyl-hArgSerSerTyrGln-SerNle-DOX (3')] (Glycolyl-[hArg]SSYQS[Nle]-{Doxorubicin(3'-N)})
- Time to 50% Substrate Cleavage by York PSA (Min), value marked * (free PSA [1]; Table 3, alternative PSA digestion buffer 12 mM Tris pH8.0, 25 mM NaCl, 0.5 mM CaCl2): 60 min

Compound: COc1cccc2c1C(=O)c1c(O)c3c(c(O)c1C2=O)C[C@@](O)(C(=O)CO)C[C@@H]3O[C@H]1C[C@H](NC(=O)[C@H](CC(C)C)NC(=O)[C@H](CO)NC(=O)[C@H](CCC(N)=O)NC(=O)[C@@H](NC(=O)[C@H](CCCCNC(=N)N)NC(=O)[C@H](O)[C@@H](O)CO)C2CCCCC2)[C@H](O)[C@H](C)O1 [(2R,3S) 2,3,4-trihydroxybutanoyl-hArgChgGln-SerLeu-DOX (3')] (X4-[hArg][Chg]QSL-{Doxorubicin(3'-N)})
- Substrate cleavage by York PSA at 4 HOUR (free PSA [1]): 0%

Compound: COc1cccc2c1C(=O)c1c(O)c3c(c(O)c1C2=O)C[C@@](O)(C(=O)CO)C[C@@H]3O[C@H]1C[C@H](NC(=O)[C@H](CC(C)C)NC(=O)[C@H](CO)NC(=O)[C@H](CCC(N)=O)NC(=O)[C@@H](NC(=O)[C@H](CO)NC(=O)[C@H](CO)NC(=O)[C@H](Cc2cccnc2)NC(=O)[C@H](O)CO)C2CCCCC2)[C@H](O)[C@H](C)O1 [(d)(2,3-dihydroxypropionyl)-3PAL-SerSerChgGln-SerLeu-DOX (3')] ({Glyceroyl(2R)}-[3Pal]SS[Chg]QSL-{Doxorubicin(3'-N)})
- EC50 (DuPRO cells): > 100 µM

Compound: COCCOCCOCC(=O)N[C@@H](CCCCN)C(=O)N[C@@H](Cc1ccc(O)cc1)C(=O)N[C@@H](CCC(N)=O)C(=O)N[C@@H](CO)C(=O)N[C@@H](CO)C(=O)N[C@@H](CO)C(=O)N[C@@H](CC(C)C)C(=O)N[C@H]1C[C@H](O[C@H]2C[C@](O)(C(=O)CO)Cc3c(O)c4c(c(O)c32)C(=O)c2c(OC)cccc2C4=O)O[C@@H](C)[C@H]1O [PEG(2)-KYQ-SSSL-DOX(3'), PEG(2)-LysTyrGln-SerSerSerLeu-DOX (3')] ({Decanoyl(3,6,9-trioxa)}-KYQSSSL-{Doxorubicin(3'-N)})
- Substrate cleavage by York PSA at 4 HOUR (free PSA [1]): 20%

Compound: COCCOCCOCC(=O)N[C@@H](CO)C(=O)N[C@@H](CCCCNC(=N)N)C(=O)N[C@@H](Cc1ccc(O)cc1)C(=O)N[C@@H](CCC(N)=O)C(=O)N[C@@H](CO)C(=O)N[C@@H](CC(C)C)C(=O)O [PEG(2)-ShRYQ-SL-acid] ({Decanoyl(3,6,9-trioxa)}-S[hArg]YQSL-OH)
- Time to 50% Substrate Cleavage by York PSA (Min), values marked * (free PSA [2]; free psa): 35 min

Compound: COCCOCCOCC(=O)N[C@@H](CCCCNC(=N)N)C(=O)N[C@@H](CO)C(=O)N[C@@H](CO)C(=O)N[C@H](C(=O)N[C@@H](CCC(N)=O)C(=O)N[C@@H](CO)C(=O)N[C@@H](CC(C)C)C(=O)O)C1CCCCC1 [PEG(2)-hRSSChgQ-SL-acid] ({Decanoyl(3,6,9-trioxa)}-[hArg]SS[Chg]QSL-OH)
- Time to 50% Substrate Cleavage by York PSA (Min), values marked * (free PSA [2]; free psa): 40 min

Compound: COCCOCCOCC(=O)N[C@@H](CO)C(=O)N[C@@H](CO)C(=O)N[C@@H](CO)C(=O)N[C@H](C(=O)N[C@@H](CCC(N)=O)C(=O)N[C@@H](CO)C(=O)N[C@@H](CC(C)C)C(=O)O)C1CCCCC1 [PEG(2)SSSChgQ-SL-acid] ({Decanoyl(3,6,9-trioxa)}-SSS[Chg]QSL-OH)
- Time to 50% Substrate Cleavage by York PSA (free PSA [2]; free psa, pH 8): 150 min

Compound: COCCOCCOCCOCCOCCOCCOCC(=O)N[C@@H](C)C(=O)N[C@@H](CO)C(=O)N[C@H](C(=O)N[C@@H](CCC(N)=O)C(=O)N[C@@H](CO)C(=O)N[C@@H](CC(C)C)C(=O)N[C@H]1C[C@H](O[C@H]2C[C@](O)(C(=O)CO)Cc3c(O)c4c(c(O)c32)C(=O)c2c(OC)cccc2C4=O)O[C@@H](C)[C@H]1O)C1CCCCC1 [PEG(6)-ASChgQ-SL-DOX(3'), PEG(6)-AlaSerChgGln-SerLeu-DOX (3')] (X1-AS[Chg]QSL-{Doxorubicin(3'-N)})
- EC50 (DuPRO cells): 100 µM

Compound: COCCOCCOCCOCCOCCOCCOCCOCCOCCOCCOCCOCCOCCOCCOCC(=O)N[C@@H](CO)C(=O)N[C@@H](CCCCNC(=N)N)C(=O)N[C@@H](Cc1ccc(O)cc1)C(=O)N[C@@H](CCC(N)=O)C(=O)N[C@@H](CO)C(=O)N[C@@H](CC(C)C)C(=O)O [PEG(14)ShRYQ-SL-acid] (X6-S[hArg]YQSL-OH)
- Time to 50% Substrate Cleavage by York PSA (free PSA [2]; free psa, pH 8): 40 min

Compound: COCCOCCOCCOCCOCCOCCOCCOCCOCCOCCOCCOCCOCCOCCOCCOCC(=O)N[C@@H](CO)C(=O)N[C@@H](CCCCNC(=N)N)C(=O)N[C@@H](Cc1ccc(O)cc1)C(=O)N[C@@H](CCC(N)=O)C(=O)N[C@@H](CO)C(=O)N[C@@H](CC(C)C)C(=O)O [PEG(15)-ShRYQ-SL-acid] (X5-S[hArg]YQSL-OH)
- Time to 50% Substrate Cleavage by York PSA (free PSA [2]; free psa, pH 8): 40 min

Compound: COCCOCCOCCOCCOCCOCCOCCOCCOCCOCCOCCOCCOCCOCCOCCOCCOCC(=O)N[C@@H](CO)C(=O)N[C@@H](CCCCNC(=N)N)C(=O)N[C@@H](Cc1ccc(O)cc1)C(=O)N[C@@H](CCC(N)=O)C(=O)N[C@@H](CO)C(=O)N[C@@H](CC(C)C)C(=O)O [PEG(16)-ShRYQ-SL-acid] (X2-S[hArg]YQSL-OH)
- Time to 50% Substrate Cleavage by York PSA (free PSA [2]; free psa, pH 8): 40 min

Compound: COCCOCCOCCOCCOCCOCCOCCOCCOCCOCCOCCOCCOCCOCCOCCOCCOCCOCC(=O)N[C@@H](CO)C(=O)N[C@@H](CCCCNC(=N)N)C(=O)N[C@@H](Cc1ccc(O)cc1)C(=O)N[C@@H](CCC(N)=O)C(=O)N[C@@H](CO)C(=O)N[C@@H](CC(C)C)C(=O)O [PEG(17)-ShRYQ-SL-acid]
- Time to 50% Substrate Cleavage by York PSA (free PSA [2]; [3]): 55 min

Compound: COCCOCCOCCOCCOCCOCCOCCOCCOCCOCCOCCOCCOCCOCCOCCOCCOCCOCCOCC(=O)N[C@@H](CO)C(=O)N[C@@H](CCCCNC(=N)N)C(=O)N[C@@H](Cc1ccc(O)cc1)C(=O)N[C@@H](CCC(N)=O)C(=O)N[C@@H](CO)C(=O)N[C@@H](CC(C)C)C(=O)O [PEG(18)ShRYQ-SL-acid]
- Time to 50% Substrate Cleavage by York PSA (free PSA [2]; free psa, pH 8): 40 min

Compound: COCCOCCOCCOCCOCCOCCOCCOCCOCCOCCOCCOCCOCCOCCOCCOCCOCCOCCOCCOCC(=O)N[C@@H](CO)C(=O)N[C@@H](CCCCNC(=N)N)C(=O)N[C@@H](Cc1ccc(O)cc1)C(=O)N[C@@H](CCC(N)=O)C(=O)N[C@@H](CO)C(=O)N[C@@H](CC(C)C)C(=O)O [PEG(19)ShRYQ-SL-acid]
- Time to 50% Substrate Cleavage by York PSA (free PSA [2]; free psa, pH 8): 60 min

Compound: CC(C)C[C@H](NC(=O)[C@H](CO)NC(=O)[C@H](CCC(N)=O)NC(=O)[C@@H](NC(=O)[C@H](CCCCNC(=N)N)NC(=O)[C@@H](N)CO)C1CCCCC1)C(=O)O [ShRChgQ-SL -acid] (H-S[hArg][Chg]QSL-OH)
- Substrate cleavage by York PSA at 4 HOUR (free PSA [2]; Table 2, oligopeptides, 4 hours): 8%

Compound: PEG(4)-β-PAL-SSChgQ-SL-acid
- Time to 50% Substrate Cleavage by York PSA (free PSA [2]; [3]): 60 min
